In ChEMBL document CHEMBL1201862, “PubChem BioAssay data set” (2004):
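Tested at 5 concentrations; 48 h exposure; 96-well plates; endpoints linearly interpolated, else capped at highest concentration. Abbreviation: GI50, concentration required for 50% inhibition of growth.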 Activity calls are given as the source filed them. Rule as the data show it: active = GI50 up to about 1.1 µM and inactive = higher.

Tests used:
Assay in all cases: inhibition of tumour cell growth, NCI panel, 48 h
CAKI-1 = tested on: CAKI-1
MDA-N = tested on: MDA-N
TK-10 = tested on: TK-10
SK-MEL-2 = tested on: SK-MEL-2
KM12 = tested on: KM12
HCT-116 = tested on: HCT-116
LOX IMVI = tested on: LOX IMVI
UO-31 = tested on: UO-31
RPMI-8226 = tested on: RPMI-8226
MDA-MB-435 = tested on: MDA-MB-435
DU-145 = tested on: DU-145
COLO 205 = tested on: COLO 205
M14 = tested on: M14
U-251 = tested on: U-251
EKVX = tested on: EKVX
SF-268 = tested on: SF-268
SNB-75 = tested on: SNB-75
HCC 2998 = tested on: HCC 2998
SNB-19 = tested on: SNB-19
MCF7 = tested on: MCF7
HOP-62 = tested on: HOP-62
NCI/ADR-RES = tested on: NCI/ADR-RES
SN12C = tested on: SN12C
NCI-H522 = tested on: NCI-H522
K562 = tested on: K562
NCI-H226 = tested on: NCI-H226
CCRF-CEM = tested on: CCRF-CEM
HOP-92 = tested on: HOP-92
IGROV-1 = tested on: IGROV-1
MDA-MB-231 = tested on: MDA-MB-231
Hs-578T = tested on: Hs-578T
NCI-H460 = tested on: NCI-H460
OVCAR-8 = tested on: OVCAR-8
A549 = tested on: A549
OVCAR-4 = tested on: OVCAR-4
BT-549 = tested on: BT-549
ACHN = tested on: ACHN
SR = tested on: SR
SK-MEL-28 = tested on: SK-MEL-28
OVCAR-5 = tested on: OVCAR-5
A498 = tested on: A498
SW-620 = tested on: SW-620
Malme-3M = tested on: Malme-3M
HL-60 = tested on: HL-60
NCI-H23 = tested on: NCI-H23
SF-539 = tested on: SF-539
PC-3 = tested on: PC-3
786-0 = tested on: 786-0
HT-29 = tested on: HT-29
UACC-257 = tested on: UACC-257
RXF 393 = tested on: RXF 393
HCT-15 = tested on: HCT-15
SK-MEL-5 = tested on: SK-MEL-5
SF-295 = tested on: SF-295
MOLT-4 = tested on: MOLT-4

CN1CC[C@@]2(c3cccc(O)c3)CC(=O)/C(=C/c3ccccc3)[C@H]1C2.[O-][Cl+3]([O-])([O-])O
GI50 (CAKI-1): 1.64 µM (inactive) | GI50 (MDA-N): 4.88 µM (inactive) | GI50 (TK-10): 15.7 µM (inactive) | GI50 (SK-MEL-2): 19.8 µM (inactive) | GI50 (KM12): 3.81 µM (inactive) | GI50 (HCT-116): 3.37 µM (inactive) | GI50 (LOX IMVI): 1.7 µM (inactive) | GI50 (UO-31): 12.9 µM (inactive) | GI50 (RPMI-8226): 2.44 µM (inactive) | GI50 (MDA-MB-435): 3.05 µM (inactive) | GI50 (DU-145): 15.8 µM (inactive) | GI50 (COLO 205): 8.05 µM (inactive) | GI50 (M14): 10.5 µM (inactive) | GI50 (U-251): 2.59 µM (inactive) | GI50 (EKVX): 14.9 µM (inactive) | GI50 (SF-268): 4.28 µM (inactive) | GI50 (SNB-75): 2.47 µM (inactive) | GI50 (HCC 2998): 10.4 µM (inactive) | GI50 (SNB-19): 7.31 µM (inactive) | GI50 (MCF7): 2.64 µM (inactive) | GI50 (HOP-62): 18.5 µM (inactive) | GI50 (NCI/ADR-RES): 3.85 µM (inactive) | GI50 (SN12C): 7.03 µM (inactive) | GI50 (NCI-H522): 3.93 µM (inactive) | GI50 (K562): 2.58 µM (inactive) | GI50 (NCI-H226): 17.8 µM (inactive) | GI50 (CCRF-CEM): 3.12 µM (inactive) | GI50 (HOP-92): 14.9 µM (inactive) | GI50 (IGROV-1): 13.7 µM (inactive) | GI50 (MDA-MB-231): 6.82 µM (inactive) | GI50 (Hs-578T): 3.35 µM (inactive) | GI50 (NCI-H460): 3.52 µM (inactive) | GI50 (OVCAR-8): 8.22 µM (inactive) | GI50 (A549): 15 µM (inactive) | GI50 (OVCAR-4): 7.94 µM (inactive) | GI50 (BT-549): 11.8 µM (inactive) | GI50 (ACHN): 8.11 µM (inactive) | GI50 (SR): 2.61 µM (inactive) | GI50 (SK-MEL-28): 11.2 µM (inactive) | GI50 (OVCAR-5): 14.3 µM (inactive) | GI50 (A498): 9.31 µM (inactive) | GI50 (SW-620): 2.54 µM (inactive) | GI50 (Malme-3M): 15 µM (inactive) | GI50 (HL-60): 2.25 µM (inactive) | GI50 (NCI-H23): 16 µM (inactive) | GI50 (SF-539): 16.9 µM (inactive) | GI50 (PC-3): 4.29 µM (inactive) | GI50 (786-0): 4.44 µM (inactive) | GI50 (HT-29): 3.18 µM (inactive) | GI50 (UACC-257): 16.1 µM (inactive) | GI50 (RXF 393): 8.17 µM (inactive) | GI50 (HCT-15): 5.89 µM | GI50 (SK-MEL-5): 17.8 µM (inactive) | GI50 (SF-295): 11.3 µM (inactive) | GI50 (MOLT-4): 2.49 µM (inactive)
